The values that follow come from paper PMC7178883, “1,2,4-Triazole-based anticonvulsant agents with additional ROS scavenging activity are effective in a model of pharmacoresistant epilepsy” (Journal of Enzyme Inhibition and Medicinal Chemistry, 2020).

Read-outs that look alike come from different tables or passages of the source.

One data set deals with HEK-293. Details: method as in PMID 30594731, PMID 28824309. As to conditions: 10 µg/ml; cited from earlier work.
The next data set deals with U-87 MG cells. The experiment in a line: Mitochondrial membrane potential, JC-1 dye (flow cytometry). The class given is cell-based, human. The conditions noted are these: 10 μg/ml, 24 h, control 5.0%. Here is the method: Mitochondrial membrane potential changes (ΔMMP) were assessed using the JC-1 MitoScreen Kit (BD Biosciences Systems, San Jose, CA, USA) as described previously. Sample of 10^6 cells/ml was suspended in a buffer mixture and incubated for 15 min at 37 °C with JC-1 dye provided by the kit manufacturer. Subsequently, the cells were washed and resuspended in a buffer. Samples prepared in this way were subjected to cytometric analysis using a cytometer BD FACSCanto II and FACSDiva software (both from BD Biosciences Systems, San Jose, CA, USA).
(In general: In flow cytometry, cells or beads pass a laser one at a time.)

The next data set has as its target T1, hCA I (Homo sapiens, UniProt P00915).
T1 construct: made in house
The experiment in a line: Carbonic anhydrase inhibition, stopped flow CO2 hydration. The class given is biochemical. As to conditions: 1 h incubation. Here is the method: (§1) Carbonic anhydrase catalysed CO2 hydration activity was measured using an Applied Photophysics stopped-flow spectrometer. […] The uncatalyzed rates were determined in the same manner and subtracted from the total observed rates. Stock solutions of inhibitor (0.1 mM) were prepared in distilled-deionized water and dilutions up to 0.01 nM were done thereafter with the assay buffer. […] The inhibition constants were obtained by non-linear least-squares methods using PRISM 3 and the Cheng–Prusoff equation and represent the mean from at least three different determinations. All CA isoforms were recombinant ones obtained in-house[21]^,[22].

The target of another data set is T2, hCA II (Homo sapiens, UniProt P00918).
T2 construct: made in house
The description is as above. The class given is biochemical. The procedure: as §1

Data set [1] concerns 6 Hz-induced psychomotor seizures. The experiment in a line: 6 Hz psychomotor seizure test. Type of data set: in vivo, mice. As to conditions: for ED50: Mus musculus, ip; for Protective index (TD50/ED50): TD50 chimney test / ED50 6 Hz test. Here is the method: All experiments on animals were performed in accordance with EU Directive 2010/63/EU for animal experiments and complied with the ARRIVE guidelines. Ethics approval for animal experimentations was obtained from the Local Ethics Committee (Lublin, Poland, approval number: 65/2018). Psychomotor seizures in mice were evoked by current (6 Hz, 0.2 ms rectangular pulse width, 32 mA, 3 s duration) generated by an S48 Square Pulse Stimulator and CCU1 Constant Current Unit (Grass Technologies, West Warwick, RI, USA). After application of ophthalmic anaesthetic (0.5% tetracaine hydrochloride) to the mice corneas, the animals underwent corneal stimulation and were placed separately in plexiglas cages (25 × 15 × 10 cm) for the observation of the presence or absence of psychomotor seizures. The animals were administered with increasing doses of TP-10, TP-315, TP-427, and the anticonvulsant activity of each compound was evaluated as the ED50 value (median effective dose of the drug, which protects 50% of mice against convulsions) calculated using the log-probit method of Litchfield and Wilcoxon[18].

The test system of another data set is HepG2. On the set-up: method as in PMID 30594731, PMID 28824309. As to conditions: 10 µg/ml; cited from earlier work.
A further data set concerns motor coordination. The conditions noted are these: cited from earlier work; for TD50 ± SEM: chimney test.
Data set [2] concerns generalised tonic-clonic seizures (MES test). Details: method as in PMID 30594731, PMID 23291122, PMID 25226229, PMID 25090118. As to conditions: Figure 1, cited from earlier work; for ED50: MES test.
[3] abbreviates: 1 h incubation, read-out: KI hCA II (1h).
Where [4] appears, read: 6 h incubation, read-out: KI hCA II (6h).
Where [5] appears, read: incubation time not given, read-out: Ki CA II.
Where [6] appears, read: mice, i.p., 32 mA, pretreatment time 15 min, read-out: ED50 ± SEM.
[7] abbreviates: mice, i.p., 32 mA, pretreatment time 30 min, read-out: ED50 ± SEM.
The mark [8] stands for this setting: mice, i.p., 32 mA, pretreatment time 60 min, read-out: ED50 ± SEM.
The mark [9] stands for this setting: mice, i.p., 32 mA, pretreatment time 120 min, read-out: ED50 ± SEM.
Where [10] appears, read: mice, i.p., pretreatment times 15 to 120 min, read-out: ED50, range over the time-course.

T1 sequence (P00915 whole entry): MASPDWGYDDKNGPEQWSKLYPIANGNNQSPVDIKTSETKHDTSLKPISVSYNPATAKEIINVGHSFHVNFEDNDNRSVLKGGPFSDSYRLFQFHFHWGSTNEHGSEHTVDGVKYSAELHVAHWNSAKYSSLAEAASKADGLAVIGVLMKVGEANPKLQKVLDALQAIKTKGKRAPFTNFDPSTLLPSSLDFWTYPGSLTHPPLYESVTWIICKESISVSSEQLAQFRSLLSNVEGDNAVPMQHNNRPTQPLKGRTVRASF

A word on the Ki: it is a measure of affinity in units of concentration, obtained from inhibition or displacement. Usually ED50 stands for the dose at which the effect has come halfway, by size or by number of responders. One may read the TD50 as the dose at which the toxic effect under study appears in half of the subjects. Regarding `CCCCCCn1c(Cc2cccc(Cl)c2)n[nH]c1=S` [TP-427, 5-(3-chlorobenzyl)-4-hexyl-2,4-dihydro-3H-1,2,4-triazole-3-thione], in the data set on HEK-293, the “toxicity for HEK-293 cells” value is “non-toxic”. For the same compound, the “cells with low mitochondrial membrane potential (ΔΨm)” value (“cells … (ΔΨm)” below) in the data set on U-87 MG cells worked out at 16.5%. Moreover, the Ki at hCA I, on hCA II (setting [3]), on hCA II (setting [4]) and at hCA II (setting [5]) was greater than 100 µM in each case. For the same compound, the ED50 was 40.9 ± 6.4 mg/kg in data set [1] (setting [6]); 46.6 ± 8.2 mg/kg in data set [1] (setting [7]); 51.6 ± 6.9 mg/kg in data set [1] (setting [8]); 64.9 ± 5.6 mg/kg in data set [1] (setting [9]); 40.9 to 64.9 mg/kg in data set [1] (setting [10]); 72.1 mg/kg in data set [2]. The “Protective index (TD50/ED50)” value is recorded as greater than 24.4 in data set [1] (pretreatment time 15 min), greater than 21.5 in data set [1] (pretreatment time 30 min), 10.5 in data set [1] (pretreatment time 60 min) and 8.5 in data set [1] (pretreatment time 120 min). Further, in data set [1] (mice, i.p.), the “Peak of anticonvulsant activity (time after i.p. administration)” value (“Peak … (time after i.p. administration)” for short) is 15 min. For the same compound, in the data set on HepG2, the “toxicity for HepG2 cells” value is given as “non-toxic”. Besides, in the data set on motor coordination (Figure 1, pretreatment time not given), the TD50 is recorded as greater than 1000 mg/kg. For the same compound, the “TD50 ± SEM” value with motor coordination (pretreatment time 15 min) and in the data set on motor coordination (pretreatment time 30 min) was greater than 1000 mg/kg in each case. Besides, in data set [2], the “interaction with VPA” value was “synergism with VPA”.

Consider `Cc1ccc(-n2c(-c3cccc(Cl)c3)n[nH]c2=S)cc1` [TP-10, 5-(3-chlorophenyl)-4-(4-methylphenyl)-2,4-dihydro-3H-1,2,4-triazole-3-thione], for which the “cells … (ΔΨm)” value in the data set with U-87 MG cells was 8.0%. Moreover, the Ki on hCA I was 2.19 µM; on hCA II (setting [3]), 74.6 µM; on hCA II (setting [4]), greater than 100 µM. In addition, the ED50 in data set [1] (0.5 h, within the first 30 min after i.p. administration, read-out: ED50 (constant activity)) is roughly 60 mg/kg; in data set [1] (setting [6]) it was 62.6 ± 13.2 mg/kg; in data set [1] (setting [7]), 61.1 ± 9.7 mg/kg; in data set [1] (setting [8]) it was 170 ± 18.5 mg/kg; in data set [1] (setting [9]), 168 ± 17.4 mg/kg; in data set [1] (setting [10]), 61.1 to 170 mg/kg. Besides, the ED50 in data set [2] was 57.0 mg/kg. In addition, the “Protective index (TD50/ED50)” value turned out to be 5.4 in data set [1] (pretreatment time 15 min), 5.5 in data set [1] (pretreatment time 30 min), 2.0 in data set [1] (pretreatment time 60 min) and 2.4 in data set [1] (pretreatment time 120 min). In data set [1] (mice, i.p.), the “Peak … (time after i.p. administration)” value is recorded as 30 min. Moreover, in data set [2], the “interaction with VPA” value is recorded as “synergism with VPA”.

On to `CCCCCCn1c(-c2cccc(Cl)c2)n[nH]c1=S` [TP-315, 5-(3-chlorophenyl)-4-hexyl-2,4-dihydro-3H-1,2,4-triazole-3-thione], for which the “toxicity for HEK-293 cells” value with HEK-293 is “non-toxic”. The “cells … (ΔΨm)” value in the data set on U-87 MG cells turned out to be 9.9%. Also, the Ki on hCA II (setting [3]), on hCA II (setting [4]) and at hCA II (setting [5]) was greater than 100 µM in each case. The ED50 in data set [1] (setting [6]) was 61.3 ± 10.1 mg/kg; in data set [1] (setting [7]) it was 59.7 ± 6.8 mg/kg; in data set [1] (setting [8]), 68.1 ± 11 mg/kg; in data set [1] (setting [9]), 136 ± 18.3 mg/kg; in data set [1] (setting [10]) it was 59.7 to 136 mg/kg; in data set [2], 47.6 mg/kg. Also, the “Protective index (TD50/ED50)” value in data set [1] (pretreatment time 15 min) came to 7.6; in data set [1] (pretreatment time 30 min), 7.8; in data set [1] (pretreatment time 60 min), 6.7; in data set [1] (pretreatment time 120 min), 3.3. Moreover, the “Peak … (time after i.p. administration)” value in data set [1] (mice, i.p.) was 30 min. In the data set on HepG2, the “toxicity for HepG2 cells” value is recorded as “non-toxic”.
